Laboratory results as given in paper PMC9200803, “Design, synthesis, and biological evaluation of tetrahydroquinolinones and tetrahydroquinolines with anticancer activity” (Scientific Reports, 2022).

What was measured:
HCT-116 cells [1] = assay: Cell cycle distribution analysis by flow cytometry (PI staining); assay type: cell-based, human; details: HCT-116, 24 to 72 h, vs vehicle
Method: Based on their antiproliferative activity, 20d and 19b were evaluated for their effect on cell cycle phase distribution and DNA content by flow cytometry.
HCT-116 and A-549 cells were seeded into culture plates and allowed to attach overnight. Then, cells were incubated with the investigated compounds for the indicated time points. After incubation, the harvested cells were fixed with ice-cold 75% ethanol and stored overnight at − 20 °C. Next, cells were rehydrated with PBS in ice for 15 min and washed twice in PBS. Finally, cells were stained with […] propidium iodide (PI) and […] RNase A in PBS for 30 min at room temperature. Cell cycle distribution was determined using a Guava easyCyte 8 flow cytometer (Merck Millipore) and FlowJo v10 software.

HEK293 cells = assay: MTT cell viability assay, HEK293; assay type: cell-based, human; details: Homo sapiens, HEK293, IC50 ± SD
HCT-116 cells [2] = assay: MTT cell viability assay, HCT-116; assay type: cell-based, human; details: MTT, 72 h, IC50 ± SD
Method: (§1) To evaluate the effects of the newly synthesized tetrahydroquinolin-2(1H)-one derivatives on cell viability, we treated human colon cancer cells HCT-116, human breast cancer cells MCF-7, and human non-small cell lung cancer cells A-549 with different concentrations of the compounds for 72 h. After incubation, the MTT (3-(4,5-dimethylthiazol-2-yl)-2,5-diphenyltetrazolium bromide) assay was performed and the cytotoxic potency of compounds (expressed in IC50) on the cells was determined in comparison to control cells treated with 1% of dimethyl sulfoxide (DMSO) (Table 1). […] We also compared the activity of 20d and 19b to the reference control drug Cisplatin, which is widely used in chemotherapy.
(§2) A-549 (CCL-185) and MCF-7 ([…]) cells were cultured in RPMI-1640 medium, while HCT-116 (CVCL-427), (hMLH1)-deficient (MMR^–) and hMLH1-proficient (MMR^+) RKO cells were cultured in McCoy’s 5A medium. The culture media were supplemented with 10% fetal bovine serum, 2 mM L-glutamine, and antibiotics (penicillin 62.6 µg/ml and streptomycin 40 µg/ml). Cultivation of cell lines was carried out at 37 °C under a humidified atmosphere containing 5% CO2, and the cultures were routinely screened for Mycoplasma contamination. A-549, MCF-7, and HCT-116 cells were obtained from American Type Culture Collection (ATCC), while RKO colon carcinoma cells were a kind gift of Dr Timothy Kinsella (Brown University, USA).
(§3) The viability of cells was determined in response to the newly synthesized compounds using the MTT (Sigma-Aldrich) assay. Briefly, cells were seeded into 96-well plates and allowed to attach overnight. Then, cells were exposed to various concentrations of compounds for 24, 48 or 72 h. Negative controls were treated with the same amount of DMSO solvent (1%). After treatment, the MTT solution (0.4 mg/ml) was added to each well and allowed to react with cells for 2–3 h at 37 °C. Next, the medium was removed, the formazan product formed was dissolved in 100 μl of DMSO, and the absorbance was determined at 540 nm using an ASYS UVM340 microplate reader (Biochrom Ltd.). The IC50 value, which represents the concentration of the compound required to inhibit cell growth by 50% compared to vehicle, was calculated using GraphPad Prism 8 software based on the curves plotting survival against dose averaged from at least three independent experiments.

HCT-116 cells [3] = assay: Colony formation (clonogenic) assay; assay type: cell-based, human; details: HCT-116, 24 h pretreatment, 9 days culture
Method: A total of 500 HCT-116 cells/well was seeded into six-well plates. After attachment, cells were pretreated with DMSO (1%) or various concentrations of 20d and 19b for 24 h. Following incubation, the medium was changed, and cells were cultured for 9 days. After culturing, cells were washed with phosphate-buffered saline (PBS), fixed with 100% methanol for 30 min, and then stained with 0.5% crystal violet for 15 min. The plates were air-dried, and visible colonies were counted using ImageJ software. The percentage viability of cells was calculated in comparison to the control.

A-549 cells = assay: MTT cell viability assay, A-549; assay type: cell-based, human
Method: as §1, §2, §3

MCF-7 cells = assay: MTT cell viability assay, MCF-7; assay type: cell-based, human; details: Homo sapiens, MCF7, 72 h, IC50 ± SD
Method: as §1, §2, §3

IC50 (HCT-116 cells [2]; Homo sapiens, HCT-116, 72 h): ~13 µM | IC50 (HCT-116 cells [2]): 13.5 ± 0.2 µM | IC50 (A-549 cells; Homo sapiens, A549, MTT, 72 h, IC50 ± SD): 15.7 ± 2.56 µM | IC50 (MCF-7 cells): > 50 µM | melting point: 183 to 185 °C
SMILES: COc1cc(-c2ccccc2)c2c(n1)C(OC(=O)Nc1ccc([N+](=O)[O-])cc1)CCC2 (stereo not shown) [Compound 19b, (2-methoxy-4-phenyl-5,6,7,8-tetrahydroquinolin-8-yl) N-(4-nitrophenyl)carbamate]
increase in the number of cells in the G0/G1 phase (HCT-116 cells [1]): < 14% | number of cells in the S-phase (HCT-116 cells [1]): substantial decrease | IC50 (HEK293 cells): > 50 µM | formation of colonies (HCT-116 cells [3]): effectively inhibited the formation of colonies in a concentration-dependent manner | fold lower concentration than Cisplatin suppressing 50% of cell viability (A-549 cells; A-549): 5 fold
